In patent publication US20250171432A1, “COMPOUNDS AND METHODS OF USE” (Tango Therapeutics, Inc., priority 2022, published 2025):

How the values were obtained:
Assay type in all cases: cell-based
[1] = test system: HAP1 MTAP-deleted cell line; experiment: Viability assay (CellTiter-Glo), HAP1 MTAP-deleted; details: Homo sapiens, 168 h, HAP1 MTAP-deleted cells, 7 days
How it was run: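 HAP1 MTAP-deleted and MTAP-intact cells seeded, then dosed next day (n=3, 0.2% DMSO) and grown 7 days. Viability by CellTiter-Glo luminescence, expressed as % of DMSO control per cell line.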

[2] = test system: SDMA (PRMT5 activity) in HAP1 MTAP-deleted cell line; experiment: SDMA in-cell western assay, HAP1 MTAP-deleted; details: for IC50 / IC90: Homo sapiens, SDMA in-cell western, HAP1 MTAP-deleted cells, 24 hours compound incubation; for Hap1 MTAP intact/deleted ratio: ratio of SDMA IC50 in HAP1 MTAP-intact to HAP1 MTAP-deleted cell line
[3] = test system: SDMA (PRMT5 activity) in HAP1 MTAP-intact cell line; experiment: SDMA in-cell western assay, HAP1 MTAP-intact; details: Homo sapiens, HAP1, 24 h, SDMA in-cell western, HAP1 MTAP-intact cells, 24 hours compound incubation

Row | Compound | IC50 [2] [nM] | IC90 [2] [nM] | IC50 [3] [nM] | IC50 [1] [nM] | Hap1 MTAP intact/deleted ratio [2]
1 | COc1ncc(NC(=O)C(=O)N2C[C@@H](C)CC[C@@H]2c2ccc3sc([C@@H](C)N(C)C)nc3c2)cc1C(N)=O [Compound 25, 2-methoxy-5-[[2-oxo-2-[(2R,5S)-5-methyl-2-[2-[(1R)-1-(dimethylamino)ethyl]-1,3-benzothiazol-5-yl]-1-piperidyl]acetyl]amino]pyridine-3-carboxamide] | 5 to 50 | 75 to 125 | > 50 | < 100 | A (“A” indicates an IC50 ratio greater than or equal to 30 fold)
2 | COc1ncc(NC(=O)C(=O)N2C[C@@H](C)CC[C@@H]2c2cccc(OC[C@@H]3CCCN3C)c2)cc1C(N)=O [Compound 26, 2-methoxy-5-(2-((2R,5S)-5-methyl-2-(3-(((S)-1-methylpyrrolidin-2-yl)methoxy)phenyl)piperidin-1-yl)-2-oxoacetamido)nicotinamide] | 5 to 50 | > 125 | > 50 | 100 to 1000 | A (“A” indicates an IC50 ratio greater than or equal to 30 fold)
3 | COc1ncc(NC(=O)C(=O)N2CCCC[C@@H]2c2ccc3sc(C4CCN(C)CC4)nc3c2)cc1C(N)=O [Compound 29, 2-methoxy-5-(2-(2-(2-(1-methylpiperidin-4-yl)benzo[d]thiazol-5-yl)piperidin-1-yl)-2-oxoacetamido)nicotinamide] | 5 to 50 | > 125 | > 50 | 100 to 1000 | A (“A” indicates an IC50 ratio greater than or equal to 30 fold)
4 | CCc1cc(NC(=O)C(=O)N2C[C@@H](C)CC[C@@H]2c2ccc3c(c2)OC2(CCN(C)CC2)C3)cnc1N [Compound 31, N-(6-amino-5-ethylpyridin-3-yl)-2-((2R,5S)-5-methyl-2-(1′-methyl-3H-spiro[benzofuran-2,4′-piperidin]-6-yl)piperidin-1-yl)-2-oxoacetamide] | 5 to 50 | > 125 | > 50 | 100 to 1000 | A (“A” indicates an IC50 ratio greater than or equal to 30 fold)
5 | COc1ncc(NC(=O)C(=O)N2C[C@@H](C)CC[C@@H]2c2cccc(OC[C@H](C)N(C)C)c2)cc1C(N)=O [Compound 37, 5-(2-((2R,5S)-2-(3-((S)-2-(dimethylamino)propoxy)phenyl)-5-methylpiperidin-1-yl)-2-oxoacetamido)-2-methoxynicotinamide] | 5 to 50 | 75 to 125 | > 50 | < 100 | A (“A” indicates an IC50 ratio greater than or equal to 30 fold)
6 | CCc1cc(NC(=O)C(=O)N2C[C@@H](C)CC[C@@H]2c2ccc3sc(CC4CCN(C)CC4)nc3c2)cnc1N [Compound 41, N-(6-amino-5-ethylpyridin-3-yl)-2-((2R,5S)-5-methyl-2-(2-((1-methylpiperidin-4-yl)methyl)benzo[d]thiazol-5-yl)piperidin-1-yl)-2-oxoacetamide] | < 5 | < 75 | 5 to 50 | < 100 | B (“B” indicates an IC50 ratio greater than or equal to 15 fold but lower than 30 fold)
7 | CCc1cc(NC(=O)C(=O)N2C[C@@H](C)CC[C@@H]2c2ccc3nn([C@H]4CCN(C)C(C)(C)C4)cc3c2)cnc1N [Compound 44] | < 5 | < 75 | 5 to 50 | < 100 | B (“B” indicates an IC50 ratio greater than or equal to 15 fold but lower than 30 fold)
8 | COc1ncc(NC(=O)C(=O)N2C[C@@H](C)CC[C@@H]2c2ccc3sc(C4=CCN(C)CCC4)nc3c2)cc1C(N)=O [Compound 46, 2-methoxy-5-(2-((2R,5S)-5-methyl-2-(2-(1-methyl-2,5,6,7-tetrahydro-1H-azepin-4-yl)benzo[d]thiazol-5-yl)piperidin-1-yl)-2-oxoacetamido)nicotinamide] | < 5 | < 75 | 5 to 50 | < 100 | B (“B” indicates an IC50 ratio greater than or equal to 15 fold but lower than 30 fold)
9 | COc1ncc(NC(=O)C(=O)N2C[C@@H](C)CC[C@@H]2c2cccc(OC[C@@H](C)N(C)C)c2)cc1C(N)=O [Compound 49, 5-(2-((2R,5S)-2-(3-((R)-2-(dimethylamino)propoxy)phenyl)-5-methylpiperidin-1-yl)-2-oxoacetamido)-2-methoxynicotinamide] | < 5 | < 75 | > 50 | 100 to 1000 | A (“A” indicates an IC50 ratio greater than or equal to 30 fold)

Continued, in another order:

Row | IC50 [2] [nM] | IC90 [2] [nM] | IC50 [3] [nM] | Compound | IC50 [1] [nM] | Hap1 MTAP intact/deleted ratio [2]
10 | < 5 | < 75 | 5 to 50 | CCc1cc(NC(=O)C(=O)N2C[C@@H](C)CC[C@@H]2c2ccc3sc(C4=CCN(C)CC4)nc3c2)cnc1N [Compound 28, N-(6-amino-5-ethylpyridin-3-yl)-2-((2R,5S)-5-methyl-2-(2-(1-methyl-1,2,3,6-tetrahydropyridin-4-yl)benzo[d]thiazol-5-yl)piperidin-1-yl)-2-oxoacetamide] | < 100 | A (“A” indicates an IC50 ratio greater than or equal to 30 fold)
11 | 5 to 50 | > 125 | > 50 | CCc1cc(NC(=O)C(=O)N2C[C@@H](C)CC[C@@H]2c2ccc3ccc(C#N)nc3c2)cnc1N [Compound 32, N-(6-amino-5-ethylpyridin-3-yl)-2-((2R,5S)-2-(2-cyanoquinolin-7-yl)-5-methylpiperidin-1-yl)-2-oxoacetamide] | 100 to 1000 | A (“A” indicates an IC50 ratio greater than or equal to 30 fold)
12 | < 5 | < 75 | > 50 | CCc1cc(NC(=O)C(=O)N2C[C@@H](C)CC[C@@H]2c2ccc3cn(CCN(C)C)nc3c2)cnc1N [Compound 38, N-(6-amino-5-ethyl-3-pyridyl)-2-oxo-2-[(2R,5S)-2-[2-[2-(dimethylamino)ethyl]indazol-6-yl]-5-methyl-1-piperidyl]acetamide] | < 100 | B (“B” indicates an IC50 ratio greater than or equal to 15 fold but lower than 30 fold)
13 | < 5 | < 75 | > 50 | CCc1cc(NC(=O)C(=O)N2C[C@@H](C)CC[C@@H]2c2ccc3sc([C@H]4C[C@@H](N(C)C)C4)nc3c2)cnc1N [Compound 40, N-(6-amino-5-ethyl-3-pyridyl)-2-oxo-2-[(2R,5S)-2-[2-[3-(dimethylamino)cyclobutyl]-1,3-benzothiazol-5-yl]-5-methyl-1-piperidyl]acetamide] | < 100 | A (“A” indicates an IC50 ratio greater than or equal to 30 fold)
14 | < 5 | < 75 | > 50 | CCc1cc(NC(=O)C(=O)N2C[C@@H](C)CC[C@@H]2c2ccc3cn([C@H]4CCN(C)C[C@H]4C)nc3c2)cnc1N [Compound 42] | < 100 | B (“B” indicates an IC50 ratio greater than or equal to 15 fold but lower than 30 fold)
15 | < 5 | < 75 | > 50 | CCc1cc(NC(=O)C(=O)N2C[C@@H](C)CC[C@@H]2c2ccc3sc([C@@H](C)CN4CCCC4)nc3c2)cnc1N [Compound 47] | < 100 | A (“A” indicates an IC50 ratio greater than or equal to 30 fold)
